Experiments:
[1] = target: Lanosterol 14-alpha demethylase (Candida glabrata (strain ATCC 2001 / BCRC 20586 / JCM 3761 / NBRC 0622 /NRRL Y-65 / CBS 138) (Yeast) (Nakaseomyces glabratus)) (UniProt P50859); assay: Inhibition of CYP51 in Candida glabrata assessed as inhibition of microbe growth incubated for 48 hrs by CLSI M27-A3 guideline based method
[2] = target: T1, Lanosterol 14-alpha demethylase (Aspergillus) (UniProt B8NUK6+Q9P8R0+G4WW85); assay: Inhibition of CYP51 in Aspergillus fumigatus assessed as inhibition of microbe growth incubated for 48 to 168 hrs by CLSI M27-A3 guideline based method
[3] = tested on: Cryptococcus neoformans; assay: Inhibition of CYP51 in Cryptococcus neoformans assessed as inhibition of microbe growth incubated for 48 hrs by CLSI M27-A3 guideline based method
[4] = target: T2, Lanosterol 14-alpha demethylase (Trichophyton rubrum (strain ATCC MYA-4607 / CBS 118892) (Athlete'sfoot fungus)) (UniProt F2SHH3); assay: Inhibition of CYP51 in Trichophyton rubrum assessed as inhibition of microbe growth incubated for 48 hrs by CLSI M27-A3 guideline based method
T2 sequence (whole entry): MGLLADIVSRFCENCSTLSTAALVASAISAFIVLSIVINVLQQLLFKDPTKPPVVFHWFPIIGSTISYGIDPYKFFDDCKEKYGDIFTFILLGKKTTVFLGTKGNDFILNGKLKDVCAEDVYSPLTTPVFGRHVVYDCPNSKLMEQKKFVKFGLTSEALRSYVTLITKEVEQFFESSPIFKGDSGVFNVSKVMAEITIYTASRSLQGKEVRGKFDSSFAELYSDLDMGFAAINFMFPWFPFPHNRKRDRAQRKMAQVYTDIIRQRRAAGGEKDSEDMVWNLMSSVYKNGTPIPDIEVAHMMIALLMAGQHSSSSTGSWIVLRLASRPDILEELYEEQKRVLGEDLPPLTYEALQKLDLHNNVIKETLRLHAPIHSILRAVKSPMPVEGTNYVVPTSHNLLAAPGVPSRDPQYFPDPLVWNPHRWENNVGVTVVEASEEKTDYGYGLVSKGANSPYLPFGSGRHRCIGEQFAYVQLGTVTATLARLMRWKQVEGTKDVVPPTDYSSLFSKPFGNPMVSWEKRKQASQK

[5] = target: T1, Lanosterol 14-alpha demethylase (Aspergillus); assay: Inhibition of CYP51 in Aspergillus flavus assessed as inhibition of microbe growth incubated for 48 to 168 hrs by CLSI M27-A3 guideline based method
[6] = target: Lanosterol 14-alpha demethylase (Candida albicans (strain SC5314 / ATCC MYA-2876) (Yeast), UniProt P10613); assay: Inhibition of CYP51 in Candida albicans assessed as inhibition of microbe growth incubated for 48 hrs by CLSI M27-A3 guideline based method
[7] = target: T3, Aromatase (Homo sapiens, UniProt P11511); assay: Inhibition of CYP19 in human hepatocyte microsomes using testosterone substrate by HPLC/MS/MS method; type: ADME
T3 sequence (P11511 whole entry): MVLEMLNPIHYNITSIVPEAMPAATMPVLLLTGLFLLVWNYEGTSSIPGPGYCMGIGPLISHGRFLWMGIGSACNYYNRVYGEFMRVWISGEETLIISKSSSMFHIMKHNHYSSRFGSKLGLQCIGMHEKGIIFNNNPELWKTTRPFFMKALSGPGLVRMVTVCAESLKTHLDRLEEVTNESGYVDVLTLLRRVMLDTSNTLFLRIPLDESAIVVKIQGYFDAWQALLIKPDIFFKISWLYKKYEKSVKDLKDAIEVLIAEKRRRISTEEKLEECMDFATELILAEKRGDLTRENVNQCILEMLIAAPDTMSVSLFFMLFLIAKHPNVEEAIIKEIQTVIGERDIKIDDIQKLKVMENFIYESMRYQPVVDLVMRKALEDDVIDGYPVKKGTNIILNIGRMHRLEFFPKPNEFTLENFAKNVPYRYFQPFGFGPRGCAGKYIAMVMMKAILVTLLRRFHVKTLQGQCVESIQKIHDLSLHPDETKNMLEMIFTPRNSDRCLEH

[8] = target: T4, Cytochrome P450 11B2, mitochondrial (Homo sapiens, UniProt P19099); assay: Inhibition of CYP11B2 in human hepatocyte microsomes using deoxycorticosteroid substrate by HPLC/MS/MS method; type: ADME
T4 sequence (P19099 whole entry): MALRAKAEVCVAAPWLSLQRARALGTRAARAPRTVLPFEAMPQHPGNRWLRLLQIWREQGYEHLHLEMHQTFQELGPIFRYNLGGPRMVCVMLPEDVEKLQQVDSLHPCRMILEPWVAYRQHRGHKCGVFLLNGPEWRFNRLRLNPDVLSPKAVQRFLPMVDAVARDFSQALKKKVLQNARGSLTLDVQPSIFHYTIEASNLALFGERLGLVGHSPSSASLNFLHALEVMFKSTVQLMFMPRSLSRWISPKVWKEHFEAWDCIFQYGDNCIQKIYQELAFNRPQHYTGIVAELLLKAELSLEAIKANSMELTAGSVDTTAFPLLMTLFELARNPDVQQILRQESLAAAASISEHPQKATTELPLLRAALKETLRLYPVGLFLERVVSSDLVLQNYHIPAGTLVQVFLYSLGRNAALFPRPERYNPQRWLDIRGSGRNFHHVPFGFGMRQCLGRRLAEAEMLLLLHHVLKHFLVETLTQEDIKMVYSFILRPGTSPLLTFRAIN

[9] = target: T5, Cytochrome P450 11B1, mitochondrial (Homo sapiens, UniProt P15538); assay: Inhibition of CYP11B1 in human hepatocyte microsomes using deoxycortisol substrate by HPLC/MS/MS method; type: ADME
T5 sequence (P15538 whole entry): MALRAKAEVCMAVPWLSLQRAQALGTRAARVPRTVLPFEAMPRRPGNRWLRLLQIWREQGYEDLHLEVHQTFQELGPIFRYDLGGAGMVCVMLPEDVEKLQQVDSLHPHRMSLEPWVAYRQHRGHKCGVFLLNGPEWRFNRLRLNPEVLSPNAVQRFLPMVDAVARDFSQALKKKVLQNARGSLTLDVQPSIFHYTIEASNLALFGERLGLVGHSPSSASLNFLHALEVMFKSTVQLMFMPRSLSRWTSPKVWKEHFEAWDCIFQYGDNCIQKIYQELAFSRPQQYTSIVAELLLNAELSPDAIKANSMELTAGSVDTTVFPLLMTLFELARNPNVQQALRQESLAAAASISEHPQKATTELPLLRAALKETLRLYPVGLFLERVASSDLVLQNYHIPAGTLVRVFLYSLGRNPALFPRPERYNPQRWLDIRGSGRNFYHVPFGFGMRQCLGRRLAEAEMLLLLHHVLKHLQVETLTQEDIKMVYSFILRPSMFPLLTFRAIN

[10] = target: T6, Steroid 17-alpha-hydroxylase/17,20 lyase (Homo sapiens, UniProt P05093); assay: Inhibition of CYP17 lyase in human hepatocyte microsomes using 17a-hydroxypregnenolone substrate by HPLC/MS/MS method; type: ADME
T6 sequence (P05093 whole entry): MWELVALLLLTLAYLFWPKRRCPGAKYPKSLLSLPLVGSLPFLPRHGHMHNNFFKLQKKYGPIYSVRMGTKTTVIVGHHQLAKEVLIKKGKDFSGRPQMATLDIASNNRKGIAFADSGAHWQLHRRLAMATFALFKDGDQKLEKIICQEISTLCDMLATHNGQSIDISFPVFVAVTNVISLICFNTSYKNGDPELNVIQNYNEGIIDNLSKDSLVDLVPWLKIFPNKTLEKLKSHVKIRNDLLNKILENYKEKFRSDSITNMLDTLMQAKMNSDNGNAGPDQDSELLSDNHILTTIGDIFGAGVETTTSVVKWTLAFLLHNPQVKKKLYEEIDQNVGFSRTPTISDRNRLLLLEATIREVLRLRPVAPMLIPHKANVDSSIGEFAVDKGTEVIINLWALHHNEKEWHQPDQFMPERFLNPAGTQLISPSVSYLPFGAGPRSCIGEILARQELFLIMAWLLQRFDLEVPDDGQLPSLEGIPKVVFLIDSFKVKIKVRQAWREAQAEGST

[11] = target: T6, Steroid 17-alpha-hydroxylase/17,20 lyase; assay: Inhibition of CYP17 hydroxylase in human hepatocyte microsomes using pregnenolone substrate by HPLC/MS/MS method; type: ADME

Sequence of Lanosterol 14-alpha demethylase (Candida glabrata (strain ATCC 2001 / BCRC 20586 / JCM 3761 / NBRC 0622 /NRRL Y-65 / CBS 138) (Yeast) (Nakaseomyces glabratus)) (P50859 whole entry): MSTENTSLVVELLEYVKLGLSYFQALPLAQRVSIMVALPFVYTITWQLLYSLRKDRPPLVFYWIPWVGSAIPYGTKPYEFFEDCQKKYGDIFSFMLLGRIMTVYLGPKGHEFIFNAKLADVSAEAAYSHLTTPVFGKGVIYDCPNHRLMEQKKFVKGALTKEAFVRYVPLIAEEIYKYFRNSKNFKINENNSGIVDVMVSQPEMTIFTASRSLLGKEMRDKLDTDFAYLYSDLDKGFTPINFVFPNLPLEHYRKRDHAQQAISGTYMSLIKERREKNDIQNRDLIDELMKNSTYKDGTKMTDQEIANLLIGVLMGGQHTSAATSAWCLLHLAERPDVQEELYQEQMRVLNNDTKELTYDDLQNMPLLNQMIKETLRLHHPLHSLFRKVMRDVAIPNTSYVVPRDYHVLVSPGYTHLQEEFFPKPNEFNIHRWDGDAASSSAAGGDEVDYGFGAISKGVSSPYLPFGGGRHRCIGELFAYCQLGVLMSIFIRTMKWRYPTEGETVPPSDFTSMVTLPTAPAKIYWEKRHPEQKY
Sequence of Lanosterol 14-alpha demethylase (P10613 whole entry): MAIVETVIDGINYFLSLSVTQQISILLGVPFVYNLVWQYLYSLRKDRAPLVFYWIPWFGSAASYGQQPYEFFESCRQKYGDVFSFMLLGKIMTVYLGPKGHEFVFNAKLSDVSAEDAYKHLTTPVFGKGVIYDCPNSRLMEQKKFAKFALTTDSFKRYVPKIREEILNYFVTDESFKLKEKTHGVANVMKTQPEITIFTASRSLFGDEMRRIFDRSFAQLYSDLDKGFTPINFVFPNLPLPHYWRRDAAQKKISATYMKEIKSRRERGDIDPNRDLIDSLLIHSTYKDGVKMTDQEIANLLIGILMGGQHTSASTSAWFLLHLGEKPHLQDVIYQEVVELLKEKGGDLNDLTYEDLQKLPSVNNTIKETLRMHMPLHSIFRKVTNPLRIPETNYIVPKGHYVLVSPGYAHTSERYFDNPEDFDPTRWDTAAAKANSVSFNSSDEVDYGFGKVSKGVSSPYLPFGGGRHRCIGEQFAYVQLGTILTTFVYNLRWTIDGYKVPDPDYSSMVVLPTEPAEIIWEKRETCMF

Structure (SMILES): N#Cc1ccc(COc2ccc(C#Cc3ccc(C(F)(F)C(O)(Cn4cnnn4)c4ccc(F)cc4F)nc3)cc2)cc1 (single isomer, unassigned; (+))
- MIC50 [1]: 0.12 µg/mL
- MIC100 [2]: 0.25 µg/mL
- MIC50 [3]: 1.9 ng/mL
- MIC50 [4]: 0.25 µg/mL
- MIC100 [5]: 0.5 µg/mL

Structure (SMILES): OC(Cn1cncn1)(Cn1cncn1)c1ccc(F)cc1F [FLUCONAZOLE]
- MIC50 [1]: 8 µg/mL
- MIC50 [6]: 0.5 µg/mL
- IC50 [7]: 22 µM
- IC50 [8]: 13 µM
- MIC100 [2]: > 64 µg/mL
- MIC50 [3]: 250 ng/mL
- IC50 [9]: 30 µM
- IC50 [10]: > 200000 nM
- MIC50 [4]: 16 µg/mL
- MIC100 [5]: > 64 µg/mL
- IC50 [11]: > 200000 nM

Structure (SMILES): CC[C@@H]([C@H](C)O)n1ncn(-c2ccc(N3CCN(c4ccc(OC[C@@H]5CO[C@@](Cn6cncn6)(c6ccc(F)cc6F)C5)cc4)CC3)cc2)c1=O [POSACONAZOLE]
- MIC50 [1]: 0.12 µg/mL
- MIC50 [6]: 0.015 µg/mL
- IC50 [7]: 8.4 µM
- IC50 [8]: 0.021 µM
- MIC100 [2]: 0.062 µg/mL
- MIC50 [3]: 7.8 ng/mL
- IC50 [9]: 0.31 µM
- IC50 [10]: 42 nM
- MIC50 [4]: 0.25 µg/mL
- MIC100 [5]: 0.25 µg/mL
- IC50 [11]: 1800 nM
